# Assays:
# [1] = test system: Echinochloa oryzoides (Ard.) Fritsch.; test: Preemergence weed control under flooded paddy conditions, ECHORC (Watergrass (Calif.)); assay type: in vivo; settings: flooded paddy; on herbicidal effect rating, ECHORC: meaning of each grade not given here
# [2] = test system: Monochoria vaginalis, Presl.; test: Preemergence weed control under flooded paddy conditions, MOOVA (Monochoria); assay type: in vivo; settings: flooded paddy; on herbicidal effect rating, MOOVA: meaning of each grade not given here
# [3] = test system: Cyperus serotinus, Rottb.; test: Preemergence weed control under flooded paddy conditions, CYPSE (Flatsedge); assay type: in vivo; on herbicidal effect rating, CYPSE: meaning of each grade not given here
# [4] = test system: Oryza sativa, (L.) Tebonnet; test: Rice tolerance to post-transplant applications under flooded paddy conditions (Example 187), ORYSAT (Rice, Tebonnet); on herbicidal effect rating ORYSAT: meaning of each grade not given here
# Cyperus iria = test: Preemergence weed control under flooded paddy conditions, CYPIR (Rice Flatsedge); assay type: in vivo; settings: flooded paddy; on herbicidal effect rating, CYPIR: meaning of each grade not given here
# Sagittaria pygmaea, L. = test: Preemergence weed control under flooded paddy conditions, SAGPY (Arrowhead (Pygmaea)); assay type: in vivo; settings: flooded paddy; on herbicidal effect rating, SAGPY: meaning of each grade not given here
# [5] = Rate 0.0313 kg/ha, preemergence, rated three to four weeks after treatment
# [6] = Rate 0.0625 kg/ha, preemergence, rated three to four weeks after treatment
# [7] = Rate 0.1250 kg/ha, preemergence, rated three to four weeks after treatment
# [8] = Rate 0.2500 kg/ha, preemergence, rated three to four weeks after treatment
# [9] = Rate 0.1250 kg/ha, rated three to four weeks after treatment
# [10] = Rate 0.2500 kg/ha, rated three to four weeks after treatment
# [11] = 0.0313 kg/ha, preemergence weeds, rated three to four weeks after treatment
# [12] = 0.0625 kg/ha, preemergence weeds, rated three to four weeks after treatment
# [13] = 0.1250 kg/ha, preemergence weeds, rated three to four weeks after treatment
# [14] = 0.2500 kg/ha, preemergence weeds, rated three to four weeks after treatment
# [15] = 0.1250 kg/ha, rated three to four weeks after treatment
# [16] = 0.2500 kg/ha, rated three to four weeks after treatment
# [17] = 0.0320 kg/ha, preemergence, rated three to four weeks after treatment
# [18] = 0.0620 kg/ha, preemergence, rated three to four weeks after treatment
# [19] = 0.1250 kg/ha, preemergence, rated three to four weeks after treatment
# [20] = 0.2500 kg/ha, preemergence, rated three to four weeks after treatment
# [21] = 0.0320 kg/ha, rated three to four weeks after treatment
# [22] = 0.0620 kg/ha, rated three to four weeks after treatment
# [23] = Rate 0.0320 kg/ha, preemergence, rated three to four weeks after treatment
# [24] = Rate 0.0620 kg/ha, preemergence, rated three to four weeks after treatment
# [25] = Rate 0.0320 kg/ha, preemergence, rated 3-4 weeks after treatment
# [26] = Rate 0.0620 kg/ha, preemergence, rated 3-4 weeks after treatment
# [27] = Rate 0.1250 kg/ha, preemergence, rated 3-4 weeks after treatment
# [28] = Rate 0.2500 kg/ha, preemergence, rated 3-4 weeks after treatment
compound,measurement,setting,value
"Cc1nsc2ccc(-n3c(=O)cc(C(F)(F)F)n(Cc4ccccc4)c3=O)cc12 [Example 218, 1-Benzyl-3-(3-methyl-1,2-benzisothiazol-5-yl)-6-(trifluoromethyl)-2,4(1H,3H)-pyrimidinedione]",ECHORC herbicidal effect rating,[1]; [5],0.0
same,ECHORC herbicidal effect rating,[1]; [6],0.0
same,ECHORC herbicidal effect rating,[1]; [7],2.0
same,ECHORC herbicidal effect rating,[1]; [8],4.0
same,MOOVA herbicidal effect rating,[2]; [5],8.0
same,MOOVA herbicidal effect rating,[2]; [6],9.0
same,MOOVA herbicidal effect rating,[2]; [7],9.0
same,MOOVA herbicidal effect rating,[2]; [8],9.0
same,CYPSE herbicidal effect rating,[3]; [5],0.0
same,CYPSE herbicidal effect rating,[3]; [6],0.0
same,CYPSE herbicidal effect rating,[3]; [7],0.0
same,CYPSE herbicidal effect rating,[3]; [8],0.0
same,ORYSAT herbicidal effect rating,"[4]; Rate 0.0313 kg/ha, rated three to four weeks after treatment",1.0
same,ORYSAT herbicidal effect rating,"[4]; Rate 0.0625 kg/ha, rated three to four weeks after treatment",2.0
same,ORYSAT herbicidal effect rating,[4]; [9],3.0
same,ORYSAT herbicidal effect rating,[4]; [10],3.0
same,CYPIR herbicidal effect rating,Cyperus iria; [5],0.0
same,CYPIR herbicidal effect rating,Cyperus iria; [6],0.0
same,CYPIR herbicidal effect rating,Cyperus iria; [7],0.0
same,CYPIR herbicidal effect rating,Cyperus iria; [8],0.0
same,SAGPY herbicidal effect rating,"Sagittaria pygmaea, L.; [5]",0.0
same,SAGPY herbicidal effect rating,"Sagittaria pygmaea, L.; [6]",0.0
same,SAGPY herbicidal effect rating,"Sagittaria pygmaea, L.; [7]",0.0
same,SAGPY herbicidal effect rating,"Sagittaria pygmaea, L.; [8]",0.0
"Cn1c(C(F)(F)F)cc(=O)n(-c2ccc3snc(C(CCl)CCl)c3c2)c1=O [Example 199, 3-{3-[2-Chloro-1-(chloromethyl)ethyl]-1,2-benzisothiazol-5-yl}-1-methyl-6-(trifluoromethyl)-2,4(1H,3H)-pyrimidinedione]","herbicidal effect rating, ECHORC",[1]; [11],2.0
same,"herbicidal effect rating, ECHORC",[1]; [12],4.0
same,"herbicidal effect rating, ECHORC",[1]; [13],7.0
same,"herbicidal effect rating, ECHORC",[1]; [14],7.0
same,"herbicidal effect rating, MOOVA",[2]; [11],8.0
same,"herbicidal effect rating, MOOVA",[2]; [12],9.0
same,"herbicidal effect rating, MOOVA",[2]; [13],9.0
same,"herbicidal effect rating, MOOVA",[2]; [14],9.0
same,"herbicidal effect rating, CYPSE",[3]; [11],0.0
same,"herbicidal effect rating, CYPSE",[3]; [12],0.0
same,"herbicidal effect rating, CYPSE",[3]; [13],0.0
same,"herbicidal effect rating, CYPSE",[3]; [14],0.0
same,"herbicidal effect rating, ORYSAT (rice tolerance)","[4]; 0.0313 kg/ha, rated three to four weeks after treatment",3.0
same,"herbicidal effect rating, ORYSAT (rice tolerance)","[4]; 0.0625 kg/ha, rated three to four weeks after treatment",4.0
same,"herbicidal effect rating, ORYSAT (rice tolerance)",[4]; [15],6.0
same,"herbicidal effect rating, ORYSAT (rice tolerance)",[4]; [16],8.0
same,"herbicidal effect rating, CYPIR",Cyperus iria; [11],0.0
same,"herbicidal effect rating, CYPIR",Cyperus iria; [12],2.0
same,"herbicidal effect rating, CYPIR",Cyperus iria; [13],4.0
same,"herbicidal effect rating, CYPIR",Cyperus iria; [14],8.0
same,"herbicidal effect rating, SAGPY","Sagittaria pygmaea, L.; [11]",0.0
same,"herbicidal effect rating, SAGPY","Sagittaria pygmaea, L.; [12]",0.0
same,"herbicidal effect rating, SAGPY","Sagittaria pygmaea, L.; [13]",0.0
same,"herbicidal effect rating, SAGPY","Sagittaria pygmaea, L.; [14]",0.0
"COC(=O)COc1cc(Cl)c(C)cc1-c1nsc2ccc(-n3c(=O)cc(C(F)(F)F)n(C)c3=O)cc12 [Example 493, Acetic acid, {{5-chloro-2-{5-[3,6-dihydro-3-methyl-2,6-dioxo-4-(trifluoromethyl)-1(2H)-pyrimidinyl]-1,2-benzisothiazol-3-yl}-p-tolyl}oxy}-, methyl ester]",ECHORC herbicidal rating,[1]; [17],4.0
same,ECHORC herbicidal rating,[1]; [18],5.0
same,ECHORC herbicidal rating,[1]; [19],9.0
same,ECHORC herbicidal rating,[1]; [20],9.0
same,MOOVA herbicidal rating,[2]; [17],5.0
same,MOOVA herbicidal rating,[2]; [18],7.0
same,MOOVA herbicidal rating,[2]; [19],7.0
same,MOOVA herbicidal rating,[2]; [20],9.0
same,CYPSE herbicidal rating,[3]; [19],9.0
same,CYPSE herbicidal rating,[3]; [20],9.0
same,ORYSAT herbicidal rating (rice tolerance),[4]; [21],2.0
same,ORYSAT herbicidal rating (rice tolerance),[4]; [22],2.0
same,ORYSAT herbicidal rating (rice tolerance),[4]; [15],3.0
same,ORYSAT herbicidal rating (rice tolerance),[4]; [16],3.0
same,CYPIR herbicidal rating,Cyperus iria; [17],4.0
same,CYPIR herbicidal rating,Cyperus iria; [18],6.0
same,CYPIR herbicidal rating,Cyperus iria; [19],7.0
same,CYPIR herbicidal rating,Cyperus iria; [20],9.0
same,SAGPY herbicidal rating,"Sagittaria pygmaea, L.; [17]",0.0
same,SAGPY herbicidal rating,"Sagittaria pygmaea, L.; [18]",0.0
same,SAGPY herbicidal rating,"Sagittaria pygmaea, L.; [19]",0.0
same,SAGPY herbicidal rating,"Sagittaria pygmaea, L.; [20]",3.0
"C=CS(=O)(=O)NC(=O)C(C)Oc1ccc(C)cc1-c1nsc2ccc(-n3c(=O)cc(C(F)(F)F)n(C)c3=O)cc12 (stereo not shown) [Example 570, Propionamide, 2-{{2-{5-[3,6-dihydro-3-methyl-2,6-dioxo-4-(trifluoromethyl)-1(2H)-pyrimidinyl]-1,2-benzisothiazol-3-yl}-p-tolyl}oxy}-N-(vinylsulfonyl)-]","herbicidal effect rating, ECHORC",[1]; [23],0.0
same,"herbicidal effect rating, ECHORC",[1]; [24],2.0
same,"herbicidal effect rating, ECHORC",[1]; [7],4.0
same,"herbicidal effect rating, ECHORC",[1]; [8],6.0
same,"herbicidal effect rating, MOOVA",[2]; [23],0.0
same,"herbicidal effect rating, MOOVA",[2]; [24],0.0
same,"herbicidal effect rating, MOOVA",[2]; [7],0.0
same,"herbicidal effect rating, MOOVA",[2]; [8],9.0
same,"herbicidal effect rating, CYPSE",[3]; [23],0.0
same,"herbicidal effect rating, CYPSE",[3]; [24],0.0
same,"herbicidal effect rating, CYPSE",[3]; [7],0.0
same,"herbicidal effect rating, CYPSE",[3]; [8],0.0
same,herbicidal effect rating ORYSAT,"[4]; Rate 0.0320 kg/ha, rated three to four weeks after treatment",0.0
same,herbicidal effect rating ORYSAT,"[4]; Rate 0.0620 kg/ha, rated three to four weeks after treatment",1.0
same,herbicidal effect rating ORYSAT,[4]; [9],2.0
same,herbicidal effect rating ORYSAT,[4]; [10],3.0
same,"herbicidal effect rating, CYPIR",Cyperus iria; [23],0.0
same,"herbicidal effect rating, CYPIR",Cyperus iria; [24],0.0
same,"herbicidal effect rating, CYPIR",Cyperus iria; [7],0.0
same,"herbicidal effect rating, CYPIR",Cyperus iria; [8],9.0
same,"herbicidal effect rating, SAGPY","Sagittaria pygmaea, L.; [23]",0.0
same,"herbicidal effect rating, SAGPY","Sagittaria pygmaea, L.; [24]",0.0
same,"herbicidal effect rating, SAGPY","Sagittaria pygmaea, L.; [7]",0.0
same,"herbicidal effect rating, SAGPY","Sagittaria pygmaea, L.; [8]",0.0
"CC(C)N(C(C)C)S(=O)(=O)NC(=O)COc1ccccc1-c1nsc2ccc(-n3c(=O)cc(C(F)(F)F)n(C)c3=O)cc12 [Example 512, Acetamide, 2-{o-{5-[3,6-dihydro-3-methyl-2,6-dioxo-4-(trifluoromethyl)-1(2H)-pyrimidinyl]-1,2-benzisothiazol-3-yl}phenoxy}-N-(diisopropyl-sulfamoyl)-]",ECHORC herbicidal rating,[1]; [17],7.0
same,ECHORC herbicidal rating,[1]; [18],7.0
same,ECHORC herbicidal rating,[1]; [19],9.0
same,ECHORC herbicidal rating,[1]; [20],9.0
same,MOOVA herbicidal rating,[2]; [17],9.0
same,MOOVA herbicidal rating,[2]; [18],9.0
same,MOOVA herbicidal rating,[2]; [19],9.0
same,MOOVA herbicidal rating,[2]; [20],9.0
same,CYPSE herbicidal rating,[3]; [17],0.0
same,CYPSE herbicidal rating,[3]; [18],0.0
same,CYPSE herbicidal rating,[3]; [19],0.0
same,CYPSE herbicidal rating,[3]; [20],0.0
same,ORYSAT herbicidal rating (rice tolerance),[4]; [21],0.0
same,ORYSAT herbicidal rating (rice tolerance),[4]; [22],0.0
same,ORYSAT herbicidal rating (rice tolerance),[4]; [15],1.0
same,ORYSAT herbicidal rating (rice tolerance),[4]; [16],2.0
same,CYPIR herbicidal rating,Cyperus iria; [17],0.0
same,CYPIR herbicidal rating,Cyperus iria; [18],2.0
same,CYPIR herbicidal rating,Cyperus iria; [19],5.0
same,CYPIR herbicidal rating,Cyperus iria; [20],5.0
same,SAGPY herbicidal rating,"Sagittaria pygmaea, L.; [17]",0.0
same,SAGPY herbicidal rating,"Sagittaria pygmaea, L.; [18]",0.0
same,SAGPY herbicidal rating,"Sagittaria pygmaea, L.; [19]",2.0
same,SAGPY herbicidal rating,"Sagittaria pygmaea, L.; [20]",4.0
"CSCCCCOC(=O)COc1ccc(C)cc1-c1nsc2ccc(-n3c(=O)cc(C(F)(F)F)n(C)c3=O)cc12 [Example 518, Acetic acid, {{2-{5-[3,6-dihydro-3-methyl-2,6-dioxo-4-(trifluoromethyl)-1(2H)-pyrimidinyl]-1,2-benzisothiazol-3-yl}-p-tolyl}oxy}-, 4-(methylthio)butyl ester]","herbicidal effect rating, ECHORC",[1]; [25],0.0
same,"herbicidal effect rating, ECHORC",[1]; [26],2.0
same,"herbicidal effect rating, ECHORC",[1]; [27],4.0
same,"herbicidal effect rating, ECHORC",[1]; [28],7.0
same,"herbicidal effect rating, MOOVA",[2]; [25],4.0
same,"herbicidal effect rating, MOOVA",[2]; [26],7.0
same,"herbicidal effect rating, MOOVA",[2]; [27],9.0
same,"herbicidal effect rating, MOOVA",[2]; [28],9.0
same,"herbicidal effect rating, CYPSE",[3]; [25],0.0
same,"herbicidal effect rating, CYPSE",[3]; [26],0.0
same,"herbicidal effect rating, CYPSE",[3]; [27],0.0
same,"herbicidal effect rating, CYPSE",[3]; [28],0.0
same,herbicidal effect rating ORYSAT,"[4]; Rate 0.0320 kg/ha, rated 3-4 weeks after treatment",1.0
same,herbicidal effect rating ORYSAT,"[4]; Rate 0.0620 kg/ha, rated 3-4 weeks after treatment",2.0
same,herbicidal effect rating ORYSAT,"[4]; Rate 0.1250 kg/ha, rated 3-4 weeks after treatment",4.0
same,herbicidal effect rating ORYSAT,"[4]; Rate 0.2500 kg/ha, rated 3-4 weeks after treatment",4.0
same,"herbicidal effect rating, CYPIR",Cyperus iria; [25],0.0
same,"herbicidal effect rating, CYPIR",Cyperus iria; [26],2.0
same,"herbicidal effect rating, CYPIR",Cyperus iria; [27],2.0
same,"herbicidal effect rating, CYPIR",Cyperus iria; [28],4.0
same,"herbicidal effect rating, SAGPY","Sagittaria pygmaea, L.; [25]",0.0
same,"herbicidal effect rating, SAGPY","Sagittaria pygmaea, L.; [26]",0.0
same,"herbicidal effect rating, SAGPY","Sagittaria pygmaea, L.; [27]",0.0
same,"herbicidal effect rating, SAGPY","Sagittaria pygmaea, L.; [28]",0.0
